Counter-ions that a name gives are not always drawn.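 All cell lines were grown in 96-well plates and treated with compound for 48 hours. GI50 marks 50% less growth.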 Calls of active or inactive are those of the source. No stated cut-off is given here; in the data, active = GI50 up to about 1.1 µM and inactive = higher. Residues, ends and D or L forms follow the SMILES beside them. *: point of attachment. Tfa = O=C(C(F)(F)F)*

These results are taken from ChEMBL document CHEMBL1201862, “PubChem BioAssay data set” (2004).

Holding throughout (assay): DTP human tumour cell line panel, 48 h
Assay [1] has as its system 786-0.
Assay [2] relates to ACHN.
The test system of assay [3] is COLO 205.
The test system of assay [4] is HCT-15.
The subject of assay [5] is Hs-578T.
For assay [6], the system named is IGROV-1.
In assay [7] the test system is M14.
The test system of assay [8] is MDA-MB-231.
Assay [9] deals with MDA-MB-435.
In assay [10] the test system is MOLT-4.
The test system of assay [11] is Malme-3M.
Assay [12] concerns NCI-H226.
The subject of assay [13] is NCI-H522.
Assay [14] concerns NCI/ADR-RES.
The subject of assay [15] is OVCAR-4.
In assay [16] the test system is SF-295.
The test system of assay [17] is SF-539.
Assay [18] relates to SNB-75.
The subject of assay [19] is SR.
The test system of assay [20] is UACC-62.

Turning to `COc1ccc(CC2NCCc3cc(OC)c(OC)cc32)cc1Br` (centres undefined), the GI50 (commonly the concentration at which growth is held to half of that of the control) in [1] is 39.4 µM (inactive); in assay [2] it was 33 µM (inactive); in assay [3] it was 16.8 µM (inactive); in assay [4] it was greater than 100 µM; in assay [5], 19.2 µM (inactive); in assay [6], 35 µM (inactive). In addition, the GI50 in assay [7] is 16.8 µM (inactive); in [8] it was 22 µM (inactive); in assay [9] it was 25.1 µM (inactive); in assay [10], 20.7 µM (inactive); in assay [11] it was 17.3 µM (inactive); in assay [12], 18.6 µM (inactive). Besides, the GI50 in assay [13] is 34.4 µM (inactive); in assay [14], 62.5 µM (inactive); in [15], 38 µM (inactive); in assay [16], 21 µM (inactive); in assay [17] it was 77.8 µM (inactive); in assay [18], 24.3 µM (inactive). Further, the GI50 in [19] was 23.9 µM (inactive); in assay [20] it was 28.9 µM (inactive).
As for `CC(C)c1ccc2c(c1)/C(=C1/Nc3ccccc3/C1=N/O)C(=O)N2`, the GI50 in [1] is 4.85 µM (inactive); in [2] it was 3.33 µM (inactive); in assay [3], 5.22 µM (inactive); in assay [4], 3.98 µM; in [5] it was 4.76 µM (inactive); in assay [6], 8.73 µM (inactive). In addition, the GI50 was 11.5 µM (inactive) in [7]; 15.3 µM (inactive) in assay [8]; 7.38 µM (inactive) in assay [9]; 3.3 µM (inactive) in [10]; 3.72 µM (inactive) in assay [11]; 10.8 µM (inactive) in assay [12]. The GI50 in assay [13] was 4.06 µM (inactive); in assay [14] it was 4.38 µM (inactive); in assay [15], 4.32 µM (inactive); in assay [16], 2.13 µM (inactive); in assay [18], 12.7 µM (inactive); in assay [19], 2.61 µM (inactive). For the same compound, the GI50 in assay [20] was 8.57 µM (inactive).
As to `Clc1ccc(NCNC2Nc3ccccc3N2)cc1Cl`, the GI50 in [1] is 66.8 µM (inactive); in assay [2], 26.6 µM (inactive); in [3], 35.8 µM (inactive); in assay [4], 31.1 µM; in [5], > 100 µM (inactive); in [7] it was 83.4 µM (inactive). The GI50 in assay [8] was 16.7 µM (inactive); in assay [9], 20.6 µM (inactive); in [10] it was 39.2 µM (inactive); in assay [11], 92.9 µM (inactive); in assay [12] it was 27.5 µM (inactive); in assay [13], 22.4 µM (inactive). Moreover, the GI50 in assay [14] was 83.4 µM (inactive); in assay [16], 20.4 µM (inactive); in [17], 48.5 µM (inactive); in [18], 19.8 µM (inactive); in assay [19], 37.1 µM (inactive); in assay [20], 2.26 µM (inactive).
For `COCOCC1CCCN1CN1CCC[C@H]1COCOC` (some centres undefined), the GI50 is 26.5 µM (inactive) in assay [1]; > 100 µM (inactive) in assay [2]; 77.8 µM (inactive) in [3]; 38.3 µM in assay [4]; > 100 µM (inactive) in assay [5]; > 100 µM (inactive) in assay [6]. Besides, the GI50 was > 100 µM (inactive) in assay [7]; > 100 µM (inactive) in assay [8]; > 100 µM (inactive) in assay [9]; 50.4 µM (inactive) in assay [10]; > 100 µM (inactive) in assay [12]; > 100 µM (inactive) in assay [13]. Besides, the GI50 in assay [14] was > 100 µM (inactive); in assay [15], > 100 µM (inactive); in [16], > 100 µM (inactive); in assay [18] it was > 100 µM (inactive); in assay [19], 49.8 µM (inactive); in assay [20], 36.6 µM (inactive).
With `O=C1CS(=O)(=O)C(c2cccc(Oc3ccccc3)c2)N1c1cc(Cl)ccc1Cl` (centres undefined), the GI50 in assay [1] was 19.2 µM (inactive); in assay [2], 19.7 µM (inactive); in [3] it was 30.2 µM (inactive); in assay [4] it was 24.9 µM; in assay [5], 33.3 µM (inactive); in [7] it was 20.4 µM (inactive). Besides, the GI50 in assay [8] was 17.5 µM (inactive); in assay [9] it was 12.1 µM (inactive); in assay [10], 39.3 µM (inactive); in assay [11] it was 47 µM (inactive); in assay [12], 19.2 µM (inactive); in assay [13] it was 23.7 µM (inactive). Also, the GI50 in assay [14] was 25.7 µM (inactive); in assay [16], 22.9 µM (inactive); in assay [17] it was 21 µM (inactive); in assay [18], 14.6 µM (inactive); in assay [19], 16.8 µM (inactive); in [20], 15.5 µM (inactive).
Regarding `CN(C)[C@H]1CC[C@H]2[C@@H]3CCC4C[C@@H](NC(=O)NC(Cc5ccccc5)c5nccs5)CC[C@]4(C)[C@H]3CC[C@]12C` (some centres undefined), the GI50 in assay [1] was 0.512 µM (active); in [2] it was 1.76 µM (inactive); in assay [3] it was 0.82 µM (active); in assay [4] it was 0.687 µM; in assay [5] it was 2.19 µM (inactive); in [6] it was 1.87 µM (inactive). In addition, the GI50 in assay [7] is 1.69 µM (inactive); in assay [8], 0.377 µM (active); in assay [9] it was 0.51 µM (active); in assay [10], 0.566 µM (active); in assay [11] it was 1.85 µM (inactive); in [12], 2.09 µM (inactive). Further, the GI50 in [13] is 2 µM (inactive); in assay [14], 1.77 µM (inactive); in [15] it was 1.72 µM (inactive); in assay [16], 0.757 µM (active); in assay [17], 1.75 µM (inactive); in assay [18], 1.75 µM (inactive). The GI50 was 1.51 µM (inactive) in assay [19] and 1.92 µM (inactive) in [20].
As to `COc1ccccc1-n1cnc2c1=NC(C)(C)NC=2C(N)=O`, the GI50 in [1] was > 100 µM (inactive); in assay [2], > 100 µM (inactive); in assay [3], > 100 µM (inactive); in assay [4] it was greater than 100 µM; in [5] it was > 100 µM (inactive); in assay [6], > 100 µM (inactive). Further, the GI50 in assay [7], in assay [8], in assay [9], in assay [11], in [12] and in assay [13] was > 100 µM (inactive) each time. For the same compound, the GI50 in assay [14], in assay [15], in [16], in assay [17], in assay [18] and in assay [19] was > 100 µM (inactive) throughout. In addition, the GI50 in assay [20] was > 100 µM (inactive).
For `C=C(Cl)C(=C)CCC(Cl)C(C)(C)Cl` (centres undefined), the GI50 in assay [1], in assay [2], in [3], in assay [5], in assay [6] and in assay [7] was > 100 µM (inactive) in each case. Besides, the GI50 in assay [8], in [9], in assay [10], in assay [11], in [12] and in assay [13] was > 100 µM (inactive) each time. Besides, the GI50 in assay [14], in assay [15], in assay [16], in assay [17], in assay [18] and in assay [19] was > 100 µM (inactive) throughout. Also, the GI50 in [20] is > 100 µM (inactive).
In the case of `NC(=O)N/N=C1/c2ccccc2-n2nccc21`, the GI50 is 76.6 µM (inactive) in assay [1]; 43.5 µM (inactive) in assay [2]; 67.1 µM (inactive) in assay [3]; 55.7 µM in [4]; 85.5 µM (inactive) in [5]; 39.9 µM (inactive) in [6]. Also, the GI50 in [7] is 71.9 µM (inactive); in assay [8] it was > 100 µM (inactive); in assay [9] it was 57.4 µM (inactive); in assay [10] it was 47.1 µM (inactive); in assay [11], > 100 µM (inactive); in assay [12], 45.5 µM (inactive). The GI50 in [13] was > 100 µM (inactive); in [14], > 100 µM (inactive); in [15], > 100 µM (inactive); in assay [16], > 100 µM (inactive); in assay [17], 48.5 µM (inactive); in assay [18], 28.8 µM (inactive). The results for the GI50 in assay [19] and in assay [20] were 39 µM (inactive) and 48.6 µM (inactive), respectively.
Regarding `CN(C)CCNc1ccc2ncnc3c2c1C(=O)c1ccccc1-3`, the GI50 in [1] was 0.215 µM (active); in assay [2], 0.281 µM (active); in [3] it was 0.433 µM (active); in assay [4], 0.323 µM; in assay [5], 0.989 µM (active); in assay [7], 0.314 µM (active). Also, the GI50 in [8] was 0.337 µM (active); in assay [9] it was 0.535 µM (active); in assay [10], 0.0769 µM (active); in assay [11] it was 0.166 µM (active); in [12] it was 0.431 µM (active); in assay [13] it was 0.232 µM (active). Also, the GI50 in assay [14] was 0.357 µM (active); in [15], 0.627 µM (active); in assay [16], 0.174 µM (active); in assay [17] it was 0.667 µM (active); in assay [18], 0.446 µM (active); in [19] it was 0.0824 µM (active). Besides, the GI50 in [20] was 0.757 µM (active).
For the compound `O=C(O)CC(NC(=O)C(F)(F)F)C(=O)NC(Cc1ccc(O)cc1)C(=O)O` (stereo not drawn) (Tfa-Asp-Tyr-OH; configuration not given here), the GI50 in assay [1] is > 50 µM (inactive); in assay [2], > 50 µM (inactive); in assay [3] it was > 50 µM (inactive); in assay [4], greater than 50 µM; in assay [5], > 50 µM (inactive); in assay [6] it was > 50 µM (inactive). In addition, the GI50 in [7], in assay [8], in assay [9], in assay [10], in assay [11] and in assay [12] was > 50 µM (inactive) in each case. Further, the GI50 in assay [13], in assay [14], in [16], in assay [17], in [18] and in assay [19] was > 50 µM (inactive) throughout. Besides, in [20], the GI50 is > 50 µM (inactive).
